Where two headings read alike, the source gives them in different places.
Legend:
barnyardgrass = experiment: Test A pre-/postemergence herbicide test; type: in vivo, Echinochloa crus-galli; details: for pest or weed control at 500 g/ha / pest or weed control at 2000 g/ha: Echinochloa crus-galli, 240 h
Summary of the method: (§1)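 Visual injury scores on a 0–100 scale (100 = complete control) taken about ten days post-treatment in greenhouse against untreated controls; dash means no result. Treatments: preemergence soil spray and postemergence spray to runoff on one- to two-leaf plants 2 to 10 cm tall, surfactant-containing formulation.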

ducksalad = experiment: Test C flooded paddy test; type: in vivo, Heteranthera limosa
[1] = system: smallflower umbrella sedge; experiment: Test C flooded paddy test; type: in vivo, Cyperus difformis
rice = experiment: Test C flooded paddy test; type: in vivo, Oryza sativa
Summary of the method: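 Injury scored visually against controls on a 0 (no effect) to 100 (complete control) scale, 12 to 14 days after treatment in greenhouse. Flooded paddy plants treated at 2-leaf stage; postemergence plants at 1- to 4-leaf stage, 2 to 18 cm tall.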

morningglory = experiment: Test A pre-/postemergence herbicide test; type: in vivo, Ipomoea spp.; details: for pest or weed control at 500 g/ha / pest or weed control at 2000 g/ha: Ipomoea, 240 h
Summary of the method: as §1

[2] = Postemergence, 500 g ai/ha, 0 to 100 scale, 0 no effect, 100 complete control
[3] = Postemergence, 2000 g ai/ha, 0 to 100 scale, 0 no effect, 100 complete control
[4] = Preemergence, 2000 g ai/ha, visual rating, 0 to 100 scale (0 no effect, 100 complete control)
[5] = preemergence, 500 g ai/ha, visual injury, 0 to 100 scale (0 no effect, 100 complete control)
[6] = 125 g ai/ha, scale 0 to 100 (0 no effect, 100 complete control)
[7] = 250 g ai/ha, scale of 0 to 100, 0 is no effect, 100 is complete control
[8] = 500 g ai/ha, visual rating after 12 to 14 days, scale 0 to 100 (0 no effect, 100 complete control)
[9] = Preemergence, 500 g ai/ha, visual rating, 0 to 100 scale (0 no effect, 100 complete control)
[10] = 62 g ai/ha, scale 0 to 100 (0 no effect, 100 complete control)
[11] = 125 g ai/ha, scale of 0 to 100, 0 is no effect, 100 is complete control
[12] = Preemergence, 2000 g ai/ha, 0 to 100 scale, 0 no effect, 100 complete control

Row | Structure (SMILES) | Barnyardgrass plant response rating (barnyardgrass; [2]) | Plant response rating, Barnyardgrass (barnyardgrass; [3]) | Barnyardgrass plant response rating (barnyardgrass; [4]) | Ducksalad plant response rating (ducksalad; [7]) | Plant response rating, Ducksalad (ducksalad; [8]) | Sedge, Umbrella plant response rating [1, 7] | Plant response rating, Sedge, Umbrella [1, 8] | Rice plant response rating (rice; [7]) | Plant response rating, Rice (rice; [8]) | Morningglory plant response rating (morningglory; [2]) | Plant response rating, Morningglory (morningglory; [3]) | Morningglory plant response rating (morningglory; [4]) | Barnyardgrass plant response rating (barnyardgrass; [9]) | Ducksalad plant response rating (ducksalad; [10]) | Ducksalad plant response rating (ducksalad; [11]) | Sedge, Umbrella plant response rating [1, 10] | Sedge, Umbrella plant response rating [1, 11] | Rice plant response rating (rice; [10]) | Rice plant response rating (rice; [11]) | Morningglory plant response rating (morningglory; [9]) | further results
1 | CCn1nc(C(C)(C)C)cc1C(=O)Nc1cccc(OC(C)C)c1 [Compound 273] | 55 | 75 | 95 | 75 | 75 | 75 | 75 | 50 | 60 | 70 | 75 | 80 |  |  |  |  |  |  |  |  | Barnyardgrass plant response rating (barnyardgrass; [5]): 70; Ducksalad plant response rating (ducksalad; 62 g ai/ha, scale 0 to 100): 20; Ducksalad plant response rating (ducksalad; [6]): 50; Sedge, Umbrella plant response rating ([1]; 62 g ai/ha, scale 0 to 100): 70; Sedge, Umbrella plant response rating [1, 6]: 75; Rice plant response rating (rice; 62 g ai/ha, scale 0 to 100): 10; Rice plant response rating (rice; [6]): 40; Morningglory plant response rating (morningglory; [5]): 45
2 | C=CCn1nc(C(C)(C)C)cc1C(=O)Nc1cccc(C(C)=NO)c1 [Compound 117] | 45 | 75 | 70 | 0 | 60 | 75 | 80 | 45 | 65 | 20 | 70 | 75 | 30 | 0 | 0 | 40 | 55 | 0 | 15 | 45 | 
3 | CCn1nc(C(C)(C)C)cc1C(=O)Nc1cccc(C(=O)NCC(F)(F)F)c1 [Compound 43, 3-(1,1-dimethylethyl)-1-ethyl-N-[3-[[(2,2,2-trifluoroethyl)amino]carbonyl]-phenyl]-1H-pyrazole-5-carboxamide] |  |  |  |  |  |  |  |  |  |  |  |  |  |  |  |  |  |  |  |  | pest or weed control at 500 g/ha (barnyardgrass; post-emergence, Postemergence, 500 g ai/ha, 0 to 100 scale, 0 no effect, 100 complete control, read-out: Plant response rating, Barnyardgrass): 90%; pest or weed control at 2000 g/ha (barnyardgrass; post-emergence, Postemergence, 2000 g ai/ha, 0 to 100 scale, 0 no effect, 100 complete control, read-out: Plant response rating, Barnyardgrass): 100%; pest or weed control at 500 g/ha (barnyardgrass; pre-emergence, Preemergence, 500 g ai/ha, visual rating, 0 to 100 scale (0 no effect, 100 complete control), read-out: Barnyardgrass plant response rating): 60%; pest or weed control at 2000 g/ha (barnyardgrass; pre-emergence, Preemergence, 2000 g ai/ha, 0 to 100 scale, 0 no effect, 100 complete control, read-out: Barnyardgrass plant response rating): 90%; pest or weed control at 62 g/ha (ducksalad; Heteranthera limosa, 62 g ai/ha, scale 0 to 100 (0 no effect, 100 complete control), read-out: Ducksalad plant response rating): 0%; pest or weed control at 125 g/ha (ducksalad; Heteranthera limosa, 125 g ai/ha, scale of 0 to 100, 0 is no effect, 100 is complete control, read-out: Ducksalad plant response rating): 0%; pest or weed control at 250 g/ha (ducksalad; Heteranthera limosa, 250 g ai/ha, visual rating after 12 to 14 days, scale 0 to 100 (0 no effect, 100 complete control), read-out: Plant response rating, Ducksalad): 60%; pest or weed control at 500 g/ha (ducksalad; Heteranthera limosa, 500 g ai/ha, visual rating after 12 to 14 days, scale 0 to 100 (0 no effect, 100 complete control), read-out: Plant response rating, Ducksalad): 70%; pest or weed control at 62 g/ha ([1]; Cyperus difformis, 62 g ai/ha, scale 0 to 100 (0 no effect, 100 complete control), read-out: Sedge, Umbrella plant response rating): 30%; pest or weed control at 125 g/ha ([1]; Cyperus difformis, 125 g ai/ha, scale of 0 to 100, 0 is no effect, 100 is complete control, read-out: Sedge, Umbrella plant response rating): 50%; pest or weed control at 250 g/ha ([1]; Cyperus difformis, 250 g ai/ha, visual rating after 12 to 14 days, scale 0 to 100 (0 no effect, 100 complete control), read-out: Plant response rating, Sedge, Umbrella): 70%; pest or weed control at 500 g/ha ([1]; Cyperus difformis, 500 g ai/ha, visual rating after 12 to 14 days, scale 0 to 100 (0 no effect, 100 complete control), read-out: Plant response rating, Sedge, Umbrella): 80%; plant injury at 62 g/ha (rice; Oryza sativa, 62 g ai/ha, scale 0 to 100 (0 no effect, 100 complete control), read-out: Rice plant response rating): 0%; plant injury at 125 g/ha (rice; Oryza sativa, 125 g ai/ha, scale of 0 to 100, 0 is no effect, 100 is complete control, read-out: Rice plant response rating): 0%; plant injury at 250 g/ha (rice; Oryza sativa, 250 g ai/ha, visual rating after 12 to 14 days, scale 0 to 100 (0 no effect, 100 complete control), read-out: Plant response rating, Rice): 20%; plant injury at 500 g/ha (rice; Oryza sativa, 500 g ai/ha, visual rating after 12 to 14 days, scale 0 to 100 (0 no effect, 100 complete control), read-out: Plant response rating, Rice): 20%; pest or weed control at 500 g/ha (morningglory; post-emergence, Postemergence, 500 g ai/ha, 0 to 100 scale, 0 no effect, 100 complete control, read-out: Plant response rating, Morningglory): 20%; pest or weed control at 2000 g/ha (morningglory; post-emergence, Postemergence, 2000 g ai/ha, 0 to 100 scale, 0 no effect, 100 complete control, read-out: Plant response rating, Morningglory): 30%; pest or weed control at 500 g/ha (morningglory; pre-emergence, Preemergence, 500 g ai/ha, visual rating, 0 to 100 scale (0 no effect, 100 complete control), read-out: Morningglory plant response rating): 10%; pest or weed control at 2000 g/ha (morningglory; pre-emergence, Preemergence, 2000 g ai/ha, 0 to 100 scale, 0 no effect, 100 complete control, read-out: Morningglory plant response rating): 40%
4 | CCn1nc(C(C)(C)C)cc1C(=O)Nc1cccc(C(=O)N2CC=CC2)c1 [Compound 286] | 60 | 80 | 85 | 90 | 90 | 90 | 90 | 65 | 75 | 20 | 35 | 40 |  |  |  |  |  |  |  |  | Barnyardgrass plant response rating (barnyardgrass; [5]): 75; Ducksalad plant response rating (ducksalad; 62 g ai/ha, scale 0 to 100): 50; Ducksalad plant response rating (ducksalad; [6]): 75; Sedge, Umbrella plant response rating ([1]; 62 g ai/ha, scale 0 to 100): 30; Sedge, Umbrella plant response rating [1, 6]: 70; Rice plant response rating (rice; 62 g ai/ha, scale 0 to 100): 45; Rice plant response rating (rice; [6]): 55; Morningglory plant response rating (morningglory; [5]): 30
5 | CCn1nc(C(C)(C)C)cc1C(=O)Nc1cccc(C(=O)NOC)c1 [Compound 67] |  | 25 |  | 40 | 40 | 75 | 75 | 0 | 30 |  | 20 |  | 0 | 30 | 30 | 50 | 50 | 0 | 0 | 0 | Plant response rating, Barnyardgrass (barnyardgrass; [2]): 0; Barnyardgrass plant response rating (barnyardgrass; [12]): 30; Plant response rating, Morningglory (morningglory; [2]): 5; Morningglory plant response rating (morningglory; [12]): 30
6 | CCOC(=O)c1cccc(NC(=O)c2cc(C(C)(C)C)nn2CCF)c1 [Compound 79] |  | 40 |  | 15 | 55 | 80 | 85 | 20 | 30 |  | 25 |  | 20 | 0 | 0 | 75 | 75 | 20 | 20 | 20 | Plant response rating, Barnyardgrass (barnyardgrass; [2]): 40; Barnyardgrass plant response rating (barnyardgrass; [12]): 35; Plant response rating, Morningglory (morningglory; [2]): 15; Morningglory plant response rating (morningglory; [12]): 60

Source: patent US20060069132A1, “Azolecarboxamide herbicides” (priority 2004, published 2006)
